Three compounds from patent publication US10907219B2, “Compositions and methods for controlling cellular function” (STC.UNM, priority 2014, dated 2021) can be followed below.

The subject of series [1] is CHO cells transfected with ABA-inducible luciferase constructs. Description: ABA-inducible luciferase assay. The format is cell-based. Particulars: 10 μM (mixture 10 μM each), 24 hours.
Series [2] is described as follows: Chemical stability of ABA-Fe molecules (HPLC). It is filed as physicochemical. The following applies: 100 μM, 50% HEPES/DMSO pH 7.4, 37° C., one hour. The procedure: Chemical stability of ABA-Fe molecules: 100 μM ABA-Fe (in 50% HEPES/DMSO buffer, pH=7.4) was incubated at 37° C. for one hour before HPLC detection. The percentages for molecule cleavage were quantified by the peak area of ABA out of the total peak area.
(§1) HPLC chromatograms were acquired using an ULTIMATE 3000 LC System (Thermo Fisher Scientific, Waltham, Mass.) with ACCLAIM 120 Å, C18, 3 μm analytical (4.6×100 mm) column (Thermo Fisher Scientific, Waltham, Mass.). Chromatographic conditions: eluent A: 0.1% v/v TFA in water; eluent B: 0.1% v/v TFA in acetonitrile. ABA in ethanol or ABA-HP in DMSO was eluted at a flow rate of 0.750 ml/min monitored at a wavelength of 260 nm. 0-12 min (linear): 95% A, 5% B to 5% A, 95% B; 12-15 min: 5% A, 95% B; 15-17 min (linear): 5% A, 95% B to 95% A, 5% B. Generation of ABA was quantified by the peak area of ABA out of the total peak area.

The subject of series [3] is HEK 293 EGFP reporter cells. Description: Cell stability of ABA-Fe molecules. The format is cell-based. The procedure:
Mammalian Cell Culture: HEK 293 EGFP reporter cells were cultured in Dulbecco's modified Eagle's medium (DMEM, GIBCO, Life Technologies, Carlsbad, Calif.) with 10% Fetal Bovine Serum (FBS, GIBCO, Life Technologies, Carlsbad, Calif.), 1× […] (100× from GIBCO, Life Technologies, Carlsbad, Calif.), and 1× Penicillin/Streptomycin (Pen/Strep, 100× from GIBCO, Life Technologies, Carlsbad, Calif.). Cells were plated with the starting concentration of 200,000 cells per well in a 24-well plate (Greiner Bio-One GmbH; Frickenhausen, Germany) for a day, and then were treated with either 10 μM of ABA-Fe and 20 μM of DFO, 10 μM of ABA-Fe only, or 10 μM of ABA-Fe and 100 μM of Fe^2+ aqueous solution.
Imagines for green fluorescence were taken for living cells every two hours after adding in those molecules by microscopy illumination system (Axio Observer; Carl Zeiss AG, Oberkochen, Germany). Each type of the experiment was carried out as duplex.

Series [4] is described as follows: ABA-Fe reactivity and selectivity towards Fe^2+ (HPLC). The format is physicochemical. Particulars: 37° C., one hour. The procedure:
ABA-Fe reactivity and selectivity towards Fe^2+: 100 μM ABA-Fe with 1 mM Fe^2+ (in 50% HEPES/DMSO buffer, pH=7.4), and 100 μM ABA-Fe with 1 mM Fe^3+ (in 50% HEPES/DMSO buffer, pH=7.4) were incubated at 37° C. for one hour before HPLC detection. The percentages for molecule cleavage were quantified by the peak area of ABA out of the total peak area.
as §1

Text for transfected cells: A concern of using UV-triggered reactions in cells is phototoxicity.

Regarding `CC1=CC(=O)CC(C)(C)C1(O)/C=C/C(C)=C/C(=O)O` (single isomer, unassigned) [2-trans isomer], in series [1], the “induced luciferase expression (activity of ABA isomers)” value was “reduced activity”.
For `CC1=CC(=O)CC(C)(C)[C@@]1(O)/C=C/C(C)=C\C(=O)ONC(C)c1ccccc1` (stereo partly drawn) [Compound 8], in series [2], the chemical stability entry is “chemically stable”. Moreover, in series [3], the stability in cells result is on record as “stable in cells”. The “selectivity towards Fe^2+ vs Fe^3+” value in series [4] (100 μM with 1 mM Fe^2+ or Fe^3+) is given as “exhibits selectivity”. Besides, in series [4] (100 μM with 1 mM Fe^2+), the “reactivity (cleavage) towards Fe^2+” value was “exhibits Fe^2+ reactivity”.
As for “dimethoxynitrosobenzaldehyde [DMNB-derived photoproduct]”, in the series with transfected cells, the toxicity result is listed as “does not cause observable toxicity”.
